Data set [1] deals with Mycobacterium tuberculosis. Put plainly: Antitubercular activity against Mycobacterium tuberculosis H37Rv by two fold serial dilution method. Format: functional.
In a further data set the test system is Vero. Nature of the data set: Cytotoxicity against african green monkey Vero cells after 72 hrs by MTT assay. Format: cell-based. The settings on record: Chlorocebus sabaeus.
Data set [2] is described as follows: Safety index, ratio of IC50 for african green monkey Vero cells to MIC for Mycobacterium tuberculosis H37Rv. Format: toxicity, cell-based.

SMILES strings stand for the structures. In brackets after ≈: the same amount, converted by molar mass. Some results are limits rather than exact numbers.

The results in this text go back to ChEMBL document CHEMBL1909540, “Synthesis and antimycobacterial evaluation of 3a,4-dihydro-3H-indeno [1,2-c] pyrazole-2-carboxamide analogues” (Eur J Med Chem, 2011).

By MIC is commonly meant the least concentration at which growth counts as inhibited. Regarding `COc1cc2c(cc1OC)C1=NN(C(N)=O)C(c3ccccc3Cl)C1C2` (stereo not drawn), in data set [1], the lowest concentration to inhibit growth (MIC) was 10.8 µM (≈ 4 µg/mL).

In data set [1], `COc1cc2c(cc1OC)C1=NN(C(N)=O)C(c3ccccc3)C1C2` (stereo not drawn) had a minimum inhibitory concentration (MIC) of 11.8 µM (≈ 3.99 µg/mL).

`COc1cc2c(cc1OC)C1=NN(C(=O)Nc3ccc(Cl)cc3)C(c3ccccc3Cl)C1C2` (stereo not drawn): inhibition of growth in data set [1] (MIC) required 13.9 µM (≈ 6.71 µg/mL).

As to `COc1ccc(C2C3Cc4cc(OC)c(OC)cc4C3=NN2C(=O)Nc2ccc(Cl)cc2)cc1OC` (stereo not drawn), the minimal inhibitory concentration (MIC) in data set [1] amounted to 9.8 µM (≈ 4.98 µg/mL).

The term IC50 denotes the concentration needed to halve the response being measured. `COc1cc2c(cc1OC)C1=NN(C(=O)Nc3ccc([N+](=O)[O-])cc3)C(c3ccncc3)C1C2` (stereo not drawn) showed a 50% inhibitory concentration (IC50) in the data set on Vero of 68 µM. Also, in data set [1], the lowest concentration to inhibit growth (MIC) was 6.8 µM (≈ 3.12 µg/mL).

For `COc1cc2c(cc1OC)C1=NN(C(=O)Nc3ccc(Cl)cc3)C(c3ccncc3)C1C2` (stereo not drawn), in the data set with Vero, the IC50 was greater than 139 µM. This compound also displayed an MIC in data set [1] of 6.96 µM (≈ 3.12 µg/mL).

As for `COc1ccc(C2C3Cc4cc(OC)c(OC)cc4C3=NN2C(=O)Nc2ccc(Cl)cc2)cc1` (stereo not drawn), 10.5 µM (≈ 5 µg/mL) was the least that counted as inhibitory in data set [1] (MIC).

`COc1ccc(C2C3Cc4cc(OC)c(OC)cc4C3=NN2C(=O)Nc2ccc([N+](=O)[O-])cc2)cc1OC` (stereo not drawn): the MIC in data set [1] worked out at 12.1 µM (≈ 6.25 µg/mL).

In turn, `COc1ccc(C2C3Cc4cc(OC)c(OC)cc4C3=NN2C(=O)Nc2ccc([N+](=O)[O-])cc2)cc1` (stereo not drawn) yielded a minimal inhibitory concentration (MIC) in data set [1] of 12.8 µM (≈ 6.24 µg/mL).

Compound `COc1cc2c(cc1OC)C1=NN(C(N)=O)C(c3ccc(F)cc3)C1C2` (stereo not drawn) came in with an IC50 with Vero of 177 µM. For the same compound, in data set [1], it took 8.44 µM (≈ 3 µg/mL) to inhibit growth (MIC).

In the data set on Vero, `COc1cc2c(cc1OC)C1=NN(C(=O)Nc3ccc([N+](=O)[O-])cc3)C(c3ccc(F)cc3)C1C2` (stereo not drawn) showed an IC50 of 94.8 µM. For the same compound, the minimum inhibitory concentration (MIC) in data set [1] was found to be 3.16 µM (≈ 1.51 µg/mL).

The compound `COc1cc2c(cc1OC)C1=NN(C(=O)Nc3ccc(Cl)cc3)C(c3ccccc3)C1C2` (stereo not drawn) returned a 50% inhibitory concentration (IC50) in the data set with Vero greater than 139 µM. This compound also showed an MIC in data set [1] of 6.97 µM (≈ 3.12 µg/mL).

The compound `COc1ccc(C2C3Cc4cc(OC)c(OC)cc4C3=NN2C(N)=O)cc1OC` (stereo not drawn) yielded a minimal inhibitory concentration (MIC) in data set [1] of 10.1 µM (≈ 3.99 µg/mL).

`COc1cc2c(cc1OC)C1=NN(C(=O)Nc3ccc([N+](=O)[O-])cc3)C(c3ccccc3Cl)C1C2` (stereo not drawn): in data set [1], it took 12.7 µM (≈ 6.25 µg/mL) to inhibit growth (MIC).

As to `COc1cc2c(cc1OC)C1=NN(C(=O)Nc3ccc([N+](=O)[O-])cc3)C(c3ccccc3)C1C2` (stereo not drawn), the IC50 in the data set with Vero worked out at 51.1 µM. In data set [1], the MIC amounted to 6.81 µM (≈ 3.12 µg/mL).

Regarding `COc1cc2c(cc1OC)C1=NN(C(N)=O)C(c3ccncc3)C1C2` (stereo not drawn), the minimal inhibitory concentration (MIC) in data set [1] was found to be 11.8 µM (≈ 3.99 µg/mL).

With `NNC(=O)c1ccncc1` [ISONIAZID], the IC50 in the data set on Vero is greater than 456 µM. In data set [1], this compound gave a minimal inhibitory concentration (MIC) of 0.56 µM (≈ 0.0768 µg/mL).

Compound `COc1cc2c(cc1OC)C1=NN(C(=O)Nc3ccc(Cl)cc3)C(c3ccc(F)cc3)C1C2` (stereo not drawn) yielded an IC50 in the data set with Vero greater than 134 µM. The compound also yielded a minimum inhibitory concentration (MIC) in data set [1] of 0.83 µM (≈ 0.387 µg/mL). Moreover, the selectivity ratio in data set [2] is greater than 161.

Regarding `COc1ccc(C2C3Cc4cc(OC)c(OC)cc4C3=NN2C(N)=O)cc1` (stereo not drawn), in data set [1], the MIC stood at 10.9 µM (≈ 3.99 µg/mL).
